From ChEMBL document CHEMBL3272295, “Drugs derived from cannabinoids. 5. delta6a,10a-Tetrahydrocannabinol and heterocyclic analogs containing aromatic side chains” (J Med Chem, 1976)

Key:
Rattus norvegicus [1] = assay: Antisecretory activity in Sprague-Dawley rat assessed as decrease in acid output at 50 mg/kg, po administered 30 mins prior to pylorus ligation measured after 4 hrs relative to control; type: functional; set-up: scale not given: the % may be the effect or the level left
Rattus norvegicus [2] = assay: Antisecretory activity in Sprague-Dawley rat assessed as decrease in pepsin concentration at 50 mg/kg, po administered 30 mins prior to pylorus ligation measured after 4 hrs relative to control; type: functional; set-up: scale not given: the % may be the effect or the level left
Rattus norvegicus [3] = assay: Antisecretory activity in Sprague-Dawley rat assessed as decrease in pepsin output at 50 mg/kg, po administered 30 mins prior to pylorus ligation measured after 4 hrs relative to control; type: functional; set-up: scale not given: the % may be the effect or the level left
Rattus norvegicus [4] = assay: (§1) Antidiarrheal activity in Charles River rat assessed as inhibition of castor oil-induced diarrhea by measuring protected animals at 0.1 mg/kg, po administered 1 hr prior to castor oil challenge measured after 1 hr relative to vehicle-treated control; type: functional
Rattus norvegicus [5] = assay: Antidiarrheal activity in Charles River rat assessed as inhibition of castor oil-induced diarrhea by measuring protected animals at 0.2 mg/kg, po administered 1 hr prior to castor oil challenge measured after 1 hr relative to vehicle-treated control; type: functional
Rattus norvegicus [6] = assay: Antidiarrheal activity in Charles River rat assessed as inhibition of castor oil-induced diarrhea by measuring protected animals at 0.05 mg/kg, po administered 1 hr prior to castor oil challenge measured after 1 hr relative to vehicle-treated control; type: functional
Rattus norvegicus [7] = assay: as §1, with “0.5” for “0.1”, “po administered for 2 days followed by 0.5 mg/kg, po on test day” for “po”; type: functional
Rattus norvegicus [8] = assay: as §1, with “0.5” for “0.1”, “po administered for 2 days followed by 1 mg/kg, po on test day” for “po”; type: functional
Rattus norvegicus [9] = assay: as §1, with “0.5” for “0.1”, “po administered for 5 days followed by 0.5 mg/kg, po on test day” for “po”; type: functional
[10] = Acute toxicity in po dosed mouse; type: organism-based; details: in vivo
Rattus norvegicus [11] = assay: Antipsychotic activity in rat assessed as reduction of methamphetamine-induced hyperactivity at 0.5 mg/kg, po administered prior to methamphetamine challenge relative to vehicle-treated control; type: functional; set-up: scale not given: the % may be the effect or the level left
Rattus norvegicus [12] = assay: Antipsychotic activity in rat assessed as reduction of methamphetamine-induced hyperactivity at 2 mg/kg, po administered prior to methamphetamine challenge relative to vehicle-treated control; type: functional; set-up: scale not given: the % may be the effect or the level left
Rattus norvegicus [13] = assay: Antihypertensive activity in spontaneously hypertensive rat model assessed as reduction in blood pressure at 0.3 mg/kg, po after 3 hrs; type: functional; set-up: scale not given: the % may be the effect or the level left
Rattus norvegicus [14] = assay: Antihypertensive activity in spontaneously hypertensive rat model assessed as reduction in blood pressure at 0.3 mg/kg, po after 24 hrs; type: functional; set-up: scale not given: the % may be the effect or the level left
Rattus norvegicus [15] = assay: Antihypertensive activity in spontaneously hypertensive rat model assessed as reduction in blood pressure at 1 mg/kg, po after 3 hrs; type: functional; set-up: scale not given: the % may be the effect or the level left
Rattus norvegicus [16] = assay: Antihypertensive activity in spontaneously hypertensive rat model assessed as reduction in blood pressure at 1 mg/kg, po after 24 hrs; type: functional; set-up: scale not given: the % may be the effect or the level left
Rattus norvegicus [17] = assay: Antisecretory activity in Sprague-Dawley rat assessed as decrease in volume at 50 mg/kg, po administered 30 mins prior to pylorus ligation measured after 4 hrs relative to control; type: functional; set-up: scale not given: the % may be the effect or the level left
Rattus norvegicus [18] = assay: Antisecretory activity in Sprague-Dawley rat assessed as decrease in acidity at 50 mg/kg, po administered 30 mins prior to pylorus ligation measured after 4 hrs relative to control; type: functional; set-up: scale not given: the % may be the effect or the level left
Mus musculus [19] = assay: Analgesic activity in po dosed mouse assessed as inhibition of acetic acid-induced writhing administered 30 mins prior to acetic acid challenge measured after 5 mins for 20 mins; type: functional
Mus musculus [20] = assay: Antianxiety activity in albino BALB/cJ mouse assessed as reduction in footshock-induced fighting behavior at 5 mg/kg, po after 30 to 90 mins; type: functional; set-up: scale not given: the % may be the effect or the level left
Rattus norvegicus [21] = assay: Antianxiety activity in Long-Evans rat assessed as reduction in motor activity at 5 mg/kg, po after 2 hrs relative to vehicle-treated control; type: functional; set-up: scale not given: the % may be the effect or the level left
Canis familiaris = assay: Antianxiety activity in po dosed dog assessed as ataxia administered as single dose measured up to 24 hrs; type: functional; details: Canis lupus familiaris, read-out: MED
Rattus norvegicus [22] = assay: Antipsychotic activity in rat assessed as reduction of methamphetamine-induced hyperactivity at 5 mg/kg, po administered prior to methamphetamine challenge relative to vehicle-treated control; type: functional; set-up: scale not given: the % may be the effect or the level left

What does the source list for `CC1CCC2=C(C1)c1c(O)cc(C(C)C(C)CCc3ccc(F)cc3)cc1OC2(C)C` (stereo not drawn)?
Activity (Rattus norvegicus [1]): 53.1%; Activity (Rattus norvegicus [2]): 20.8%; Activity (Rattus norvegicus [3]): 56.4%; inhibition in vivo at 0.1 mg/kg (Rattus norvegicus [4]): 60%; inhibition in vivo at 0.2 mg/kg (Rattus norvegicus [5]): 90%; inhibition in vivo at 0.05 mg/kg (Rattus norvegicus [6]): 40%; inhibition in vivo at 0.5 mg/kg (Rattus norvegicus [7]): 0.5%; inhibition (INH) (Rattus norvegicus [8]): 0%; inhibition in vivo at 0.5 mg/kg (Rattus norvegicus [9]): 0%; LD50 [10]: 750 mg/kg; Activity (Rattus norvegicus [11]): 58%; Activity (Rattus norvegicus [12]): 62%; Activity (Rattus norvegicus [13]): 13%; Activity (Rattus norvegicus [14]): 10%; Activity (Rattus norvegicus [15]): 27%; Activity (Rattus norvegicus [16]): 12%; Activity (Rattus norvegicus [17]): 45.6%; Activity (Rattus norvegicus [18]): 13.4%; ED50 (Mus musculus [19]): 4.5 mg/kg; Activity (Mus musculus [20]): 0%; Activity (Rattus norvegicus [21]): 66%; minimal effective dose (Canis familiaris): 1 mg/kg; Activity (Rattus norvegicus [22]): 89%
